Experimental data published in US20230330109A1, “COMPOUND FOR PREVENTING AND TREATING LIVER DISEASES AND PHARMACEUTICAL USE THEREOF” (CHENGDU BIOBEL COMPANY LIMITED, priority 2020, published 2023).
Where a name gives a salt, the structure may show the parent alone.

Columns and labels:
Assay type in all cases: in vivo
male C57BL/6N mice [1] = test: Serum biochemical indexes in MCD diet FLD mice (Experimental Example 1); set-up: AST / ALT / ALP: unit not given here; details: for decrease rate of ALP / decrease rate of ALT / decrease rate of AST: compared with the model group, dosages as in Table 1; for ALP / ALT / AST: serum, MCD diet mice, drug in diet for 20 days, dosage 300 mg/kg/d (I-1, HTD1801) or 150 mg/kg/d (nor-UDCA, berberine hydrochloride)
Text: (§1) 48 male C57BL/6N mice (8-week-old) were chosen, in which 8 mice were randomly divided into the blank group, fed with normal diet, while the other 40 mice were all subjected to establishing models. There was an adaptation period of 6 days before modeling. Then, mice were fed with the mixture of MCD and MCS (TROPHIC Animal Feed High-Tech Co. Ltd, Nantong, Jiangsu, China, TP3005GS, high-fat feed) in a ratio of 1:2, 1:1 and 2:1, and each ratio of diet was given to the mice for two days in the order of 1:2, 1:1 and 2:1. After that, mice were given MCD feed for 28 days (TROPHIC Animal Feed High-Tech Co. Ltd, Nantong, Jiangsu, China, TP3005G, methionine- and choline-deficient diet). On the 28th day, mice were randomly divided into five groups, namely model group, compound I-1 group, norUDCA group, berberine hydrochloride group, and HTD1801 group, eight mice for each group. After grouping, each treatment group was further fed customized MCD diet containing drugs for 20 days, while the model group was fed the same diet as the previous. All groups were fed the isocaloric diet. After the last administration on the 21st day, the mice were fasted for 16 h (but free access to water) and weighed. Then, blood was taken from the femoral artery and centrifuged to separate the serum, which was stored at low temperature of −30° C., ready for testing the biochemical indexes of the serum. In addition, the liver was taken, and two pieces of left lobe were taken for each mouse, which were placed in 10% neutral formalin solution, respectively. After treatment, liver histopathological examination was performed.

male C57BL/6N mice [2] = test: Liver histopathological examination in MCD diet FLD mice (Experimental Example 1); set-up: scale not given here; details: liver histopathology, dosage 300 mg/kg (I-1, HTD1801) or 150 mg/kg (nor-UDCA, berberine hydrochloride)
Text: as §1

male C57BL/6N mice [3] = test: Hepatic fat staining in MCD diet FLD mice (Experimental Example 1); details: dosage 300 mg/kg (I-1, HTD1801) or 150 mg/kg (nor-UDCA, berberine hydrochloride)
Text: as §1

male Wistar rats = test: Thioacetamide-induced hepatic fibrosis/cirrhosis in rats, Sirius Red fibrosis area; details: for decrease rate of fibrosis area: compared with the rat cirrhosis model group, dosages as in Table 4; for Hepatic fibrosis area (%): thioacetamide rats, oral, Sirius Red, dosage 160 mg/kg (I-1, HTD1801) or 80 mg/kg (nor-UDCA, berberine hydrochloride)
Text: 60 male Wistar rats (weighing 180-220 g) were divided into 6 groups, with 10 rats in each group, and the rats were provided by Chengdu Dossy Experimental Animal Co., Ltd. In the experiment, the compound of the present invention and the positive control drug nor-UDCA were first ground in a proper amount of Tween, and then diluted to the pre-determined concentration with 0.5% carboxymethyl cellulose (CMC) sodium.
The rat liver fibrosis model was established by inducing with thioacetamide. Rats were intraperitoneally injected with thioacetamide at a dose of 200 mg/kg, three times a week, for 12 weeks. Four weeks after induction with thioacetamide, the compound of the present invention was orally administered to the test groups, while the blank group and the model group were given the same amount of CMC suspension. Among them, every morning, rats in each test group were given 160 mg/kg of compound I-1, 80 mg/kg of nor-UDCA, 80 mg/kg of berberine hydrochloride, and 160 mg/kg of positive control HTD1801. After experiment, all rats were euthanized, and their livers were taken out.
The liver tissue was fixed with 10% formaldehyde solution and embedded in paraffin. The fixed liver tissue was sectioned with a thickness of about […], and then stained with Hematoxylin-Eosin (HE) and Sirius Red. Sirius Red staining was used for morphological analysis and to determine the percentage of liver tissue affected by its fibrosis. The image of the section was collected by using the microscopic imaging system. In order to make the results more accurate, 15 positive visual fields of Sirius Red staining were randomly selected from each slice to calculate the proportion of liver fibrosis area, which was used in statistical analysis.

Row | Compound | decrease rate of ALP (male C57BL/6N mice [1]) [%] | decrease rate of ALT (male C57BL/6N mice [1]) [%] | decrease rate of AST (male C57BL/6N mice [1]) [%] | ALP (male C57BL/6N mice [1]) | ALT (male C57BL/6N mice [1]) | AST (male C57BL/6N mice [1]) | Score Edema (male C57BL/6N mice [2]) | Score Inflammation cell infiltration (male C57BL/6N mice [2]) | Score Necrosis (male C57BL/6N mice [2]) | Score Steatosis (male C57BL/6N mice [2]) | Hepatic fat staining Scores (male C57BL/6N mice [3]) | decrease rate of fibrosis area (male Wistar rats) [%] | Hepatic fibrosis area (%) (male Wistar rats)
1 | COc1ccc2cc3[n+](cc2c1OC)CCc1cc2c(cc1-3)OCO2 [Berberine hydrochloride, berberine hydrochloride] | 15.10 | 12.09 | 1.86 | 193.4 ± 32.9 | 942.4 ± 64.5 | 768.4 ± 38.1 | 1.8 | 1.9 | 2.1 | 2.2 | 1.9 | 15.17 | 15.14 ± 3.67
2 | COc1ccc2cc3[n+](cc2c1OC)CCc1cc2c(cc1-3)OCO2.C[C@H](CCC(=O)[O-])[C@H]1CC[C@H]2[C@@H]3[C@@H](O)C[C@@H]4C[C@H](O)CC[C@]4(C)[C@H]3CC[C@]12C [HTD1801] | – | – | – | 188.8 ± 21.3 | 303.0 ± 99.1 | 409.9 ± 51.7 | 0.7 | 1.3 | 0.8 | 1.3 | 1.1 | – | 9.39 ± 1.45
3 | C[C@H](CC(=O)O)[C@H]1CC[C@H]2[C@@H]3[C@@H](O)C[C@@H]4C[C@H](O)CC[C@]4(C)[C@H]3CC[C@]12C [nor-UDCA, norursodeoxycholic acid] | 12.95 | 21.82 | 20.67 | 198.3 ± 94.5 | 761.8 ± 374.2 | 683.4 ± 253.7 | 1.6 | 2.1 | 2.0 | 2.5 | 1.7 | 6.18 | 16.79 ± 5.48
